PMC8230625 (International Journal of Molecular Sciences, 2021)
“Also recorded” adds a separate entry of the source.

Experiments:
in vitro = details: human
Procedure: (§1) The HeLa cervical cancer adherent cell line (ATCC: CCL-2) was applied for the evaluation of individual and combined effects of mycotoxins on cell viability. The cells were cultured in DMEM (high glucose, 4500 mg/L) with 10% FBS, penicillin (100 U/mL), and streptomycin (100 μg/mL) in sterile plastic cell culture flasks (75 cm^2; 5% CO2, 37 °C). The cells were trypsinized and plated onto 96-well sterile plastic plates. Stock solutions (each 5000 μM) of ZEN, ZELs, ZAN, and ZALs used in cell experiments were prepared in 96 v/v% ethanol (spectroscopic grade; VWR, Debrecen, Hungary). Stock solutions of AOH (5000 μM or 40 mM) were prepared in spectroscopic grade dimethyl sulfoxide (DMSO; Fluka, Morris Plains, NJ, USA). Mycotoxin stock solutions were stored at −20 °C.
(§2) HeLa cells were treated with ZEN, α/β-ZEL, ZAN, α/β-ZAL, and AOH (0–250 μM) for 24 h. […] The cell viability was evaluated based on the ATP levels/well employing a previously described method without modifications.
(§3) Combined effects were evaluated based on combination indices (CI) determined using the CompuSyn software (ComboSyn Inc., Paramus, NJ, USA) by the median-effect equation of the mass-action law:(1) logfa/fu=m×log(D)−m×log(Dm), where fa and fu are the affected and unaffected fractions of the system, respectively; D represents the dose, Dm denotes the dose necessary for the production of median effect, while m is the sigmoidicity coefficient (m > 1 sigmoidal, m = 1 hyperbolic, m < 1 flat sigmoidal).
(§4) The combined effects of mycotoxins were determined by the CI values calculated based on the following equation [68]:(2) CI=(D)1/(Dx)1+(D)2/(Dx)2, where (Dx)1 and (Dx)2 are the individual doses necessary for the production of x% effect, while (D)1 and (D)2 are the doses of the two compounds that combined evoke the same effect as (Dx)1 alone or (Dx)2 alone, i.e., the targeted x% effect.

HeLa cells = experiment: in vitro; details: HeLa; for CI Value (combination index): CompuSyn; for Concentration at (and above) which statistically significant (p < 0.01) decrease in cell viability was noticed: 24 h incubation, single compound; for IC50: Homo sapiens, read-out: Dm (IC50), viability of HeLa cells (ATP/well)
Procedure: as §1, §2, §3, §4

hERα = tested on: hERα; parameters: method as in PMID 16194592; details: cited from earlier work
Ishikawa cells = tested on: Ishikawa cells; parameters: method as in PMID 16194592; details: alkaline phosphatase assay; cited from earlier work
androgen receptors = tested on: androgen receptors; parameters: method as in PMID 28910742; details: yeast reporters bioassay; cited from earlier work
estrogen receptors = tested on: estrogen receptors; parameters: method as in PMID 28910742; details: yeast reporters bioassay; cited from earlier work
hERβ = tested on: hERβ; parameters: method as in PMID 16194592; details: cited from earlier work
[1] = molecular target: T1, hERα (Saccharomyces cerevisiae BLYES strain) (Homo sapiens, UniProt P03372); experiment: cell-based; type: cell-based; details: for CI Value (combination index) / Combined Estrogenic Effect / Combined Estrogenic Effect (grade symbol): + 6.28 × 10^−2 µM ZEN; for Combined estrogenic effect in Figure 5B: + 62.8 ×10^-3 μM ZEN
T1 construct: expressed in transfected cells; host or cells: Saccharomyces cerevisiae BLYES strain (hERα gene integrated in the chromosome)
Text: The Saccharomyces cerevisiae BLYES strain was applied to examine the estrogenic activity of the compounds tested. This bioluminescent yeast bioreporter harbors the hERα gene on its chromosome, and it has two plasmids with genes responsible for bioluminescence. The pUTK404 plasmid contains luxC, -D, and -E genes from Photorhabdus luminescens and flavin oxidoreductase gene (frp) from Vibrio harveyi. The pUTK407 plasmid contains tandem estrogen responsive elements (EREs) that initiate the transcription of luxA and luxB genes after binding the dimer formed by estrogen receptor—ligand complexes.
S. cerevisiae BLYES strain was grown in 30 mL of yeast growth medium (YMM leu-, ura-) for 18–20 h at 30 °C.
Stock solutions of the compounds tested were prepared in methanol and stored at −20 °C. Estrogen assays were carried out on 96-well (PS, F-bottom) microplates (Greiner Bio-One Hungary Ltd., Mosonmagyaróvár, Hungary). In single compound tests, stock solutions of the compounds were serially diluted with methanol; whereas, in co-exposure experiments, a 20-µL mixture of the solutions was placed into the wells of the microplates. After the evaporation of methanol, yeast culture (200 µL; OD600 of 1.000 ± 0.050) were pipetted into each well. E2 was applied as a positive control, while wells containing only yeast cells and yeast cells with methanol served as negative and solvent controls, respectively. Bioluminescence (cps, counts per second) was measured after 5-h incubation (30 °C) with a VictorX Multilabel Plate Reader (Perkin Elmer Inc., Waltham, MA, USA).
as §3, §4
Zero percent was defined in each measurement as the mean of the methanol control values, and 100% was defined as the mean of all plateau values of single compounds’ concentration—response curves.

[2] = 24 h, 10 µM (lower toxic concentration) of the compound + 20 µM ZEN
[3] = 24 h, 10 µM of the compound + 20 µM ZEN
[4] = 24 h, 30 µM (higher toxic concentration) of the compound + 20 µM ZEN
[5] = 24 h, 30 µM of the compound + 20 µM ZEN
[6] = BLYES, higher estrogenic concentration of the compound (as E22)
[7] = BLYES, lower estrogenic concentration of the compound (as E21)

T1 sequence (P03372 whole entry): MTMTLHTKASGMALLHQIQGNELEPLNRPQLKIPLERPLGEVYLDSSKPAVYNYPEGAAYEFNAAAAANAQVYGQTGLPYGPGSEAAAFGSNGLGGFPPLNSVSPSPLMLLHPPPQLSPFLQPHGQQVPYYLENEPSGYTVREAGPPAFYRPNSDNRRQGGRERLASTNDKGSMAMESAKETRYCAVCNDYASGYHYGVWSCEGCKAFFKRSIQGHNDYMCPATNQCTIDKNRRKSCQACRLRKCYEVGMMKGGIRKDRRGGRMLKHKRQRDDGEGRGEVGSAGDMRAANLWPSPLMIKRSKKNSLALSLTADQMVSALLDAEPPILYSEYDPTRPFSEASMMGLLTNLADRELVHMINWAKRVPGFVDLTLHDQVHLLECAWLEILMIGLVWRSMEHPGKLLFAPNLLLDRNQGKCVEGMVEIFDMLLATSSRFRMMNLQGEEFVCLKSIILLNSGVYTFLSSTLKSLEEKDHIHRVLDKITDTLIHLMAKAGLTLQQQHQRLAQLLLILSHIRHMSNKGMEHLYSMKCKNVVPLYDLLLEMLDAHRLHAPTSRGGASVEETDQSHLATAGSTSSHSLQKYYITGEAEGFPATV

With `Cc1cc(O)cc2oc(=O)c3c(O)cc(O)cc3c12` [AOH, alternariol] the cytotoxicity at 24 h, 10 µM (in vitro; Decrease in cellular ATP levels (% of control), individual effect, HeLa, 24 h, single compound at 10 μM) was 13.6%, the cytotoxicity at 24 h, 30 µM (in vitro; Decrease in cellular ATP levels (% of control), individual effect, HeLa, 24 h, single compound at 30 μM) was 32.4% and the “Combined cytotoxic effect in Figure 3B” value (HeLa cells; [2]) was “Syn and synergism”. For the same compound, the “Combined Cytotoxic Effect” value (HeLa cells; [3]) was “Synergism (CI < 0.8: synergism)”, the “Combined Cytotoxic Effect (grade symbol)” value (HeLa cells; [3]) was “+ (0.60 < CI < 0.80: +)” and the “CI Value (combination index)” value (HeLa cells; [3]) was 0.73. The “Combined cytotoxic effect in Figure 3B” value (HeLa cells; [4]) was “Syn and synergism”, the “Combined Cytotoxic Effect” value (HeLa cells; [5]) was “Synergism (CI < 0.8: synergism)” and the “Combined Cytotoxic Effect (grade symbol)” value (HeLa cells; [5]) was “++ (CI < 0.60: ++)”. The “CI Value (combination index)” value (HeLa cells; [5]) was 0.50, the “Concentration at (and above) which statistically significant (p < 0.01) decrease in cell viability was noticed” value (HeLa cells) was 10 µM and the IC50 (HeLa cells; 24 h) was 33.6 µM. For the same compound, the “Fold lower affinity toward hERα compared to 17β-estradiol (E2)” value (hERα) was 10,000 fold, the “Fold weaker estrogenic effects vs. E2” value (Ishikawa cells) was 10,000 fold and the “Behaviour at androgen receptors” value (androgen receptors) was “full agonist”. For the same compound, the “Behaviour at estrogen receptors” value (estrogen receptors) was “weak partial agonist”, the “Fold lower affinity toward hERβ compared to 17β-estradiol (E2)” value (hERβ) was 2500 fold and the “Effect of subtoxic (non-estrogenic) concentration of the compound on the estrogenic effect of ZEN” value ([1]; BLYES, co-treatment with ZEN (approx. 20% estrogenicity), α-ZEL 1.56 × 10^−3 µM, ZAN 6.24 × 10^−3 µM, AOH up to 48.4 µM, Figure 5A) was “did not cause any relevant change; also recorded: did not increase the estrogenic effect of ZEN”. The “Estrogenic effect in BLYES assay” value ([1]; single compound, even at 50 µM) was “did not induce estrogenic effects; also recorded: did not show estrogenicity”.

In the case of `C[C@H]1CCC[C@@H](O)CCC/C=C/c2cc(O)cc(O)c2C(=O)O1` [β-ZEL, β-zearalenol], the cytotoxicity at 10 µM (in vitro) is reported as 19.7%, the cytotoxicity at 30 µM (in vitro) is reported as 33.1% and the “Combined cytotoxic effect in Figure 3B” value (HeLa cells; [2]) is reported as “Syn”. For the same compound, the “Combined Cytotoxic Effect” value (HeLa cells; [3]) was “Synergism (CI < 0.8: synergism)”, the “Combined Cytotoxic Effect (grade symbol)” value (HeLa cells; [3]) was “+ (0.60 < CI < 0.80: +)” and the “CI Value (combination index)” value (HeLa cells; [3]) was 0.64. The “Combined cytotoxic effect in Figure 3B” value (HeLa cells; [4]) was “Add”, the “Combined Cytotoxic Effect” value (HeLa cells; [5]) was “Additive effect (0.8 < CI < 1.2: additive effect)” and the “Combined Cytotoxic Effect (grade symbol)” value (HeLa cells; [5]) was “± (0.80 < CI < 1.20: ±)”. The “CI Value (combination index)” value (HeLa cells; [5]) was 1.07, the “Effect of the non-toxic (subtoxic) concentration of the compound on ATP levels of ZEN-exposed cells” value (HeLa cells; 24 h, co-exposure with toxic concentration of ZEN (20 μM), compared to ZEN-exposed cells, Figure 3A) was “statistically significant (p < 0.01) decreases in ATP levels” and the “Concentration at (and above) which statistically significant (p < 0.01) decrease in cell viability was noticed” value (HeLa cells) was 10 µM. The IC50 (HeLa cells; 24 h) was 39.4 µM, the EC50 [1] was 2.4 µM and the “CI Value (combination index)” value ([1]; BLYES, higher concentration (µM): α-ZEL 1.25 × 10^−2, β-ZEL 2.43, ZAN 4.99 × 10^−2, α-ZAL 2.48 × 10^−2, β-ZAL 2.48 × 10^−1, GEN 1.48) was 0.95. For the same compound, the “Combined Estrogenic Effect” value [1, 6] was “Additive effect (0.8 < CI < 1.2: additive effect)”, the “Combined Estrogenic Effect (grade symbol)” value [1, 6] was “± (0.80 < CI < 1.20: ±)” and the “CI Value (combination index)” value ([1]; BLYES, lower concentration (µM): α-ZEL 6.24 × 10^−3, β-ZEL 1.22, ZAN 2.50 × 10^−2, α-ZAL 1.24 × 10^−2, β-ZAL 1.24 × 10^−1, GEN 7.4 × 10^−1) was 0.77. The “Combined Estrogenic Effect” value [1, 7] was “Synergism (CI < 0.8: synergism)”, the “Combined Estrogenic Effect (grade symbol)” value [1, 7] was “+ (0.60 < CI < 0.80: +)” and the “Combined estrogenic effect in Figure 5B” value ([1]; BLYES, higher estrogenic concentration of the compound (as E20)) was “additive effects”. For the same compound, the “Combined estrogenic effect in Figure 5B” value ([1]; BLYES, lower estrogenic concentration of the compound (as E19)) was “synergism” and the “Concentration at (and above) which statistically significant (p < 0.01) estrogenic effect was observed” value ([1]; BLYES, single compound) was 0.31 µM.
